Some test systems named below: RPMI-8226 leukemia; T-47D breast; HL-60(TB) leukemia; U251 CNS; SK-OV-3 ovarian; LOX IMVI melanoma; HCT-15 colon; M14 melanoma; SW-620 colon; PC-3 prostate.
What all share (experiment): NCI tumour cell line growth inhibition, 48 h

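Where inhibition never reached the appropriate level, the endpoint shown equals the highest concentration tested. Otherwise, values were interpolated linearly from a five-concentration, 48-hour dose response in 96-well plates. GI50 marks 50% less growth. The concentration for full growth arrest is given as TGI.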 Some results are limits rather than exact numbers.

`Clc1ccc(Cc2nc3ccccc3nc2-c2cccc(Cl)c2)cc1`: the TGI in the test on RPMI-8226 leukemia is 2.14 µM; with T-47D breast it was more than 100 µM; in the test with HL-60(TB) leukemia it was 6.29 µM; in the test on U251 CNS, 16.7 µM; in the test with SK-OV-3 ovarian it was 31.8 µM; in the test with LOX IMVI melanoma it was 3.58 µM. In addition, the TGI in the test with HCT-15 colon was found to be 3.46 µM; with M14 melanoma it was 5.06 µM; in the test on SW-620 colon, 3.71 µM; in the test with PC-3 prostate, 8.18 µM.
Regarding `COc1ccc(-c2cc(-c3ccc(OC)c(OC)c3)nc(SCCCC(=O)NO)n2)cc1`, the GI50 with RPMI-8226 leukemia is 0.752 µM; in the test on T-47D breast, 1.42 µM; in the test on HL-60(TB) leukemia, 1.64 µM; in the test on U251 CNS, 1.76 µM; in the test with SK-OV-3 ovarian, 1.45 µM; in the test on LOX IMVI melanoma, 0.243 µM. For the same compound, the GI50 in the test on HCT-15 colon was 0.553 µM; in the test on SW-620 colon, 0.906 µM; in the test on PC-3 prostate, 2.07 µM. Further, the TGI is 6.21 µM with RPMI-8226 leukemia; more than 100 µM in the test with T-47D breast; 5.99 µM in the test on HL-60(TB) leukemia; 5.78 µM in the test on U251 CNS; 4.93 µM with SK-OV-3 ovarian; 1.06 µM in the test with LOX IMVI melanoma. The values for the TGI with HCT-15 colon, with SW-620 colon and with PC-3 prostate were 3.59 µM, 10.7 µM and more than 100 µM, respectively.
Regarding `CCCC(CC)c1cc(O)c(O)cc1C(CC)CCC` (centres undefined), the TGI in the test with RPMI-8226 leukemia, with T-47D breast, in the test on HL-60(TB) leukemia, with U251 CNS, in the test with SK-OV-3 ovarian and with LOX IMVI melanoma was more than 10 µM throughout. Further, the TGI in the test with HCT-15 colon, in the test with M14 melanoma, in the test on SW-620 colon and with PC-3 prostate was more than 10 µM in each case.
`CCOC(=O)c1c(SCCN2CCCCC2)n(-c2ccccc2)c(=S)n(-c2ccccc2)c1=O`: the TGI with RPMI-8226 leukemia was more than 21.9 µM; in the test on T-47D breast it was 8.27 µM; in the test with HL-60(TB) leukemia, more than 33.8 µM; in the test on U251 CNS it was more than 68.2 µM; with SK-OV-3 ovarian, more than 100 µM; with LOX IMVI melanoma, 26.2 µM. The TGI in the test with HCT-15 colon turned out to be 9.82 µM; with M14 melanoma, 81.6 µM; with SW-620 colon, 13.8 µM; with PC-3 prostate, 27.7 µM.
On to `CCOC(=O)COC1=Nc2cc(OC)c(OC)c3nc(Cl)cc(c23)C1=O`, for which the TGI in the test on RPMI-8226 leukemia was more than 100 µM; in the test on T-47D breast, 24 µM; with HL-60(TB) leukemia it was 0.879 µM; with U251 CNS, 8.49 µM; with SK-OV-3 ovarian, 24.1 µM; in the test on LOX IMVI melanoma, 4.23 µM. The TGI is 6.16 µM in the test with HCT-15 colon, 3.08 µM with M14 melanoma, more than 21.6 µM in the test on SW-620 colon and 3.45 µM in the test with PC-3 prostate.
For the compound `O=C1CCc2cc3c(cc21)C(C(=O)O)CC3` (centres undefined), the TGI with RPMI-8226 leukemia, with T-47D breast, in the test on HL-60(TB) leukemia, in the test on U251 CNS, in the test with SK-OV-3 ovarian and with LOX IMVI melanoma was more than 100 µM throughout. The TGI with HCT-15 colon, with M14 melanoma, with SW-620 colon and in the test with PC-3 prostate was more than 100 µM throughout.
Turning to `O=C1/C(=C/c2cccs2)N=C(c2ccccc2)N1c1nc2ccccc2s1`, the TGI in the test with RPMI-8226 leukemia was 52.2 µM; in the test with T-47D breast, more than 100 µM; in the test on HL-60(TB) leukemia it was more than 100 µM; in the test with U251 CNS, more than 100 µM; with LOX IMVI melanoma it was more than 100 µM; with HCT-15 colon, more than 100 µM. The TGI in the test on M14 melanoma, in the test with SW-620 colon and in the test with PC-3 prostate was more than 100 µM each time.
Regarding `COC(C[C@H]1CCCC[C@]1(O)/C(=C\CO[Si](C(C)C)(C(C)C)C(C)C)Sc1ccccc1)OC`, the TGI was 38.4 µM in the test on RPMI-8226 leukemia; 40.8 µM in the test on T-47D breast; more than 100 µM in the test on HL-60(TB) leukemia; 51.8 µM in the test on U251 CNS; more than 100 µM in the test on SK-OV-3 ovarian; 37.5 µM in the test on LOX IMVI melanoma. Also, the TGI with HCT-15 colon is 60 µM; in the test with M14 melanoma, more than 100 µM; with PC-3 prostate it was more than 100 µM.
For the compound `CN(c1ccc(Cl)cc1)S(=O)(=O)c1ccccc1`, the TGI with RPMI-8226 leukemia, in the test with T-47D breast, in the test on HL-60(TB) leukemia, in the test on U251 CNS, with SK-OV-3 ovarian and with LOX IMVI melanoma was more than 100 µM in each case. Besides, the TGI in the test with HCT-15 colon, in the test with M14 melanoma, with SW-620 colon and with PC-3 prostate was more than 100 µM throughout.
In the case of `COC(CC1(CCNc2ccccc2)C(=O)N(COCC[Si](C)(C)C)c2ccccc21)OC` (centres undefined), the TGI in the test on RPMI-8226 leukemia is more than 100 µM; in the test with T-47D breast, 56.3 µM; in the test on HL-60(TB) leukemia it was 98.2 µM; in the test with U251 CNS it was more than 61 µM; in the test on SK-OV-3 ovarian it was 30 µM; with LOX IMVI melanoma, 29.7 µM. In addition, the TGI is 34.2 µM in the test with HCT-15 colon, 6.92 µM with M14 melanoma, more than 55.3 µM with SW-620 colon and 27.8 µM in the test with PC-3 prostate.
Take `CC(=O)NCC1OC2COC(c3ccccc3)OC2C2N=C(c3ccccc3)OC12` (centres undefined): the TGI in the test on RPMI-8226 leukemia is 89.1 µM; in the test with T-47D breast it was 57.7 µM; in the test on HL-60(TB) leukemia it was 52.9 µM; in the test with U251 CNS, more than 100 µM; in the test on SK-OV-3 ovarian, more than 100 µM; with LOX IMVI melanoma, more than 100 µM. For the same compound, the TGI with HCT-15 colon, with M14 melanoma, in the test on SW-620 colon and in the test with PC-3 prostate was more than 100 µM in each case.
For `O=C1Sc2cc3ccccc3cc2C(=O)Sc2cc3ccccc3cc21`, the TGI in the test on RPMI-8226 leukemia is more than 24.6 µM; in the test on T-47D breast it was more than 75 µM; with HL-60(TB) leukemia it was 27.1 µM; in the test with U251 CNS it was more than 100 µM; in the test on SK-OV-3 ovarian, more than 100 µM; with LOX IMVI melanoma it was 48.1 µM. Moreover, the TGI is 90.7 µM in the test with HCT-15 colon, more than 63.9 µM in the test on M14 melanoma, more than 100 µM with SW-620 colon and more than 100 µM in the test on PC-3 prostate.
Turning to `COc1ccc(OC)c(-c2cn3c(n2)sc2ccccc23)c1`, the TGI in the test with RPMI-8226 leukemia, in the test with T-47D breast, with HL-60(TB) leukemia, in the test on U251 CNS, in the test with SK-OV-3 ovarian and with LOX IMVI melanoma was more than 100 µM each time. Also, the TGI in the test with HCT-15 colon, in the test with SW-620 colon and with PC-3 prostate was more than 100 µM throughout.
As to `COc1cccc(OC/C(N=Cc2ccncc2)=N/NC(=O)c2ccncc2)c1`, the TGI with RPMI-8226 leukemia, in the test with T-47D breast, in the test on HL-60(TB) leukemia, with U251 CNS, in the test on SK-OV-3 ovarian and in the test with LOX IMVI melanoma was more than 100 µM in each case. Moreover, the TGI with HCT-15 colon, in the test on M14 melanoma, in the test on SW-620 colon and with PC-3 prostate was more than 100 µM in each case.
For `C=C(C)C(=O)O[C@H]1CC2(CO)O[C@@H]2CC/C(COC(C)=O)=C/C2OC(=O)C(=C)[C@@H]21` (some centres undefined), the TGI with RPMI-8226 leukemia was 31.3 µM; in the test on T-47D breast it was more than 79.2 µM; with HL-60(TB) leukemia, 29.6 µM; in the test with U251 CNS, more than 100 µM; with SK-OV-3 ovarian, more than 100 µM; in the test on LOX IMVI melanoma it was more than 60 µM. Moreover, the TGI in the test on HCT-15 colon was more than 96.7 µM; with M14 melanoma, 49.1 µM; in the test on SW-620 colon it was 54.7 µM; in the test on PC-3 prostate, more than 100 µM.
For the compound `Cc1c(Cl)c(=O)oc2cc(OCC(O)COC(C)C)ccc12` (centres undefined), the TGI in the test on RPMI-8226 leukemia is more than 100 µM; with T-47D breast, more than 100 µM; in the test with HL-60(TB) leukemia, 56.9 µM; in the test with U251 CNS, more than 100 µM; in the test with SK-OV-3 ovarian, more than 100 µM; with LOX IMVI melanoma, more than 100 µM. Also, the TGI was 92.4 µM with M14 melanoma, more than 100 µM in the test on SW-620 colon and more than 100 µM in the test on PC-3 prostate.
With `COC(=O)c1c(C)cccc1C1CN=NC12Cc1cccc(C)c1C2=O` (centres undefined), the TGI in the test on RPMI-8226 leukemia was more than 100 µM; in the test with T-47D breast it was more than 100 µM; in the test with HL-60(TB) leukemia, 33.6 µM; in the test with U251 CNS, more than 100 µM; with LOX IMVI melanoma, 32.7 µM; in the test on HCT-15 colon, more than 100 µM. In addition, the TGI is 25.5 µM with M14 melanoma, more than 100 µM in the test on SW-620 colon and 71.1 µM in the test on PC-3 prostate.
On to `COc1ccc(C2C3=CONC3CC3CCCCC32)cc1` (centres undefined), for which the TGI with RPMI-8226 leukemia, with T-47D breast, in the test on HL-60(TB) leukemia, with U251 CNS, with LOX IMVI melanoma and in the test with M14 melanoma was more than 100 µM throughout. The TGI in the test with SW-620 colon and with PC-3 prostate was more than 100 µM each time.
In the case of `CCC(=O)Nc1ccc(N2C(=O)/C(=C/c3ccc(O)c(OC)c3)N=C2c2ccccc2)cc1`, the TGI with RPMI-8226 leukemia, in the test with T-47D breast, with HL-60(TB) leukemia, in the test on SK-OV-3 ovarian, with LOX IMVI melanoma and in the test on HCT-15 colon was more than 100 µM each time. Also, the TGI with M14 melanoma is more than 100 µM; in the test with SW-620 colon, more than 100 µM; in the test with PC-3 prostate, 60.8 µM.
In the case of `Cn1c(O)c(/C=N/c2ncccn2)c(=O)[nH]c1=O`, the TGI in the test on T-47D breast, with HL-60(TB) leukemia, with U251 CNS, with SK-OV-3 ovarian, in the test on LOX IMVI melanoma and with HCT-15 colon was more than 100 µM throughout. In addition, the TGI in the test with M14 melanoma, in the test on SW-620 colon and in the test on PC-3 prostate was more than 100 µM throughout.
